2 molecules from patent US9445993B2, “Nanotechnology approach for inhalation therapies” (Rutgers, The State University of New Jersey, priority 2012, dated 2016) can be followed below.

For data set [1], the system named is lung fibrosis induced by intratracheal instillation of bleomycin. Nature of the data set: Animal model of IPF and inhalation treatment: body mass and mortality (Example 1). The settings on record: three weeks after instillation of 1.5 U/kg bleomycin. The class given is in vivo, mice. On the procedure:
(§1) Experiments were performed on healthy 6-8 weeks old SKH1-hr hairless mice (20-25 g) obtained from Charles River Laboratories (Wilmington, Mass.). Veterinary care followed the guidelines described in the guide for the care and use of laboratory animals (AAALAC) as well as the requirements established by the animal protocol approved by the Rutgers Institutional Animal Care and Use Committee (IACUC).
All mice were contained in micro-isolated cages under pathogen-free conditions at room temperature with humidity of 40±15% and light/dark cycle on 12 h per day in the animal maintenance facility. Mice were anesthetized via intraperitoneal instillation with 80 mg/kg ketamine and 10-12 mg/kg xylazine (Butler-Schine Animal Health Inc, Dublin, Ohio). Once anesthetized, the mouse was placed on the tilting rodent work stand (Hallowell EMC, Pittsfield, Mass.) in supine position and restrained in position by an incisor loop. The tongue was then extruded via rotation with a cotton tip applicator. The larynx was visualized using a modified 4 mm ear speculum attached to an operating head of an ophthalmoscope (Wellch Allyn, Skaneateles Falls, N.Y.). […]
Bleomycin was administered intratracheally in doses of 0.5, 1.0, 1.5, and 2.0 U/kg. […] Animal weight was measured daily throughout the study. […]

In data set [2] the test system is IPF initiated by the intratracheal instillation of bleomycin. As to the kind of experiment: Animal model of IPF and inhalation treatment starting day 15 (Example 2): body and lung weight, hydroxyproline, MRI, histology. On the procedure: Healthy 6-8 weeks old SKH1-hr hairless mice of both genders (20-25 g) were obtained from Charles River Laboratories (Wilmington, Mass.). IPF was initiated by the intratracheal instillation of bleomycin at the dose of 1.5 U/kg. Changes in animal body and lung weight, hydroxyproline content in the lung tissue, and lung histology were used as hallmarks of the development of IPF in experimental animals.
Mice were treated separately with three different NLC-based DDS containing PGE2 and siRNA targeted to MMP3, CCL12 and HIF1A mRNA with appropriate controls by inhalation twice a week for three weeks starting 15 days after the bleomycin administration. […] A previously developed instillation unit consisting of a collision nebulizer connected to four-port, nose-only exposure chambers was used for inhalation delivery of NLC-PEG2-siRNA. NLC-based DDS was aerosolized at the flow rate of 2 L/min for ten min. Animal weight was measured daily throughout the study. In vivo imaging was performed twice per week in anesthetized mice during the whole course of the treatment. Optical Imaging (In-Vivo MS FX PRO, IVIS 100) and ultrasound (Vevo 2100 imaging system) was performed to monitor the body distribution of nanoparticles and disease progression, respectively. Animals were treated 6 times (2 times per week) starting from the day 15 after bleomycin instillation.
Expression of genes and proteins involved in the development and compensation of IPF was studied by quantitative RT-PCR (genes), Western blotting and Immunohistochemistry (proteins). In addition, body and organ weights as well as hydroxyproline content in the lungs was monitored. The distribution of osmium-, fluorescent- or tritium-labeled DDS was examined in mouse lungs, heart, liver, spleen, kidneys, and brain using transmission electron and confocal microscopes, optical imaging systems, and a radioactive counter, respectively. Adverse side effects of the treatment were determined by histopathological analysis, apoptosis and necrosis measurement in the healthy organs (heart, liver, spleen, kidneys, and brain).
Changes in animal body and lung weight, hydroxyproline content in the lung tissue and lung histology were used as hallmarks of the development of IPF in experimental animals after the instillation of 1.5 U/kg of bleomycin.

In the next data set the test system is lung tissue. Nature of the data set: Histopathologic analysis of lungs (Example 1). The class given is in vivo, mice. The settings on record: 1.5 U/kg bleomycin instilled. The source says:
At the end of the experiments, the animals were euthanized, the lungs were extracted and immediately fixed in 10% phosphate-buffered formalin. Samples were subsequently dehydrated and embedded in Paraplast®. Five-micrometer sections were cut and stained with hematoxylin-eosin as previously described and analyzed.

Data set [3] has as its system hydroxyproline content in the lungs. Nature of the data set: Hydroxyproline assay in lungs (Example 1). The data set is classed as in vivo, mice. The conditions noted are these: three weeks after instillation of 1.5 U/kg bleomycin. On the procedure: […] Homogenized lung tissues were hydrolyzed in 12 N HCl at 120° C. for 3 h in pressure-tight vials. After this, 10 μl of samples were allocated to a 96 well plate and dried under vacuum. Oxidation buffer with chloramine T was added to each sample at room temperature for 5 min, and the samples were incubated in dimethylaminobenzaldehyde (DMAB) reagent for 90 min at 60° C. Samples were cooled and the absorbance at 560 nm was measured using an automated microplate plate reader. Six concentrations of hydroxyproline standard dilutions (from 0 to 1 μg/well) were used to plot a hydroxyproline standard curve.

A further data set has as its system mice. As to the kind of experiment: Selection of bleomycin dose (animal death after intratracheal instillation). The data set is classed as in vivo. The conditions noted are these: observed 21 days. On the procedure: as §1
All mice were contained in micro-isolated cages under pathogen-free conditions at room temperature with humidity of 40±15% and light/dark cycle on 12 h per day in the animal maintenance facility. Mice were anesthetized via intraperitoneal instillation with 80 mg/kg ketamine and 10-12 mg/kg xylazine (Butler-Schine Animal Health Inc, Dublin, Ohio). Once anesthetized, the mouse was placed on the tilting rodent work stand (Hallowell EMC, Pittsfield, Mass.) in supine position and restrained in position by an incisor loop. The tongue was then extruded via rotation with a cotton tip applicator. The larynx was visualized using a modified 4 mm ear speculum attached to an operating head of an ophthalmoscope (Wellch Allyn, Skaneateles Falls, N.Y.). The modified speculum, acting in an inverted fashion as a laryngoscope blade, provided dorsal displacement of the tongue and magnification of the laryngeal opening as described.
Bleomycin was administered intratracheally in doses of 0.5, 1.0, 1.5, and 2.0 U/kg. Mice were treated with liposomal PGE2 by inhalation twice a week for three weeks starting with the second day after the bleomycin administration. […] Animal weight was measured daily throughout the study. After the three weeks treatment period, all mice were anesthetized with isoflurane and euthanized. The organs (lungs, heart, liver, kidney, spleen, and brain) were excised and used for further analysis.
In order to select an appropriate dose of bleomycin, four doses (0.5; 1.0; 1.5; 2.0 U/kg) were tested. […] The dose of 2.0 U/kg led to the death of 100% of animals within 21 days (FIG. 1A). The doses of 1.5 and 1.0 U/kg induced death of 50 and 25% of animals, respectively.

The test system of data set [4] is 84 key genes involved in tissue remodeling; MMP3, CCL12, HIF1A. As to the kind of experiment: Gene and protein expression in lung tissues (Example 2). The data set is classed as in vivo, mice. The conditions noted are these: treatment with PGE2. On the procedure: The profiles of the expression of 84 key genes involved in tissue remodeling during wound repair and development of fibrosis were studied in the lung tissues. […] Overexpression of some proteins was confirmed using immunostaining of lung tissue sections (FIG. 13A). In addition to genes included in the mouse fibrosis array, the expression of VEGF and hypoxia inducible factor 1 alpha (HIF1A) proteins was analyzed by immunohistochemistry (FIG. 13A) and Western blotting (FIG. 13B). Instillation of bleomycin led to the overexpression of HIF1A protein (FIGS. 13A and B).

Setting [5] is: 15 days after instillation of 1.5 U/kg bleomycin.
[6] abbreviates: PGE2 delivered by liposomes or NLC by inhalation, from day 15.

Take bleomycin: the “body mass of animals, % of its initial value” in data set [1] was determined as 75%. The “body weight of animals, % of its initial value” in data set [2] (setting [5]) turned out to be 75%. Further, the “increase of hydroxyproline concentration in the lungs” value in data set [2] (setting [5]) came out at 2.6 fold; in data set [3], 2.6 times. The lung weight result in data set [2] (setting [5]) is “significantly increased”. In addition, the lung histology result in data set [2] (bleomycin 1.5 U/kg) is “consolidation of the pulmonary architecture, with early fibrotic thickening of the alveolar walls, ablation of the alveolar space, and edema”; in the data set with lung tissue it was “consolidation of the pulmonary architecture, with early fibrotic thickening of the alveolar walls, ablation of the alveolar space, and edema”. Also, the animal death result in the data set with mice (bleomycin 0.5 U/kg intratracheally) is on record as “did not induce animal death”. In addition, the death of animals is 25% in the data set on mice (bleomycin 1.0 U/kg intratracheally) and 50% with mice (bleomycin 1.5 U/kg intratracheally). In addition, the “death of animals within 21 days” value with mice (bleomycin 2.0 U/kg intratracheally) is 100%.

Turning to `CCCCC[C@H](O)/C=C/[C@H]1[C@H](O)CC(=O)[C@@H]1C/C=C\CCCC(=O)O` [PGE2, Prostaglandin E2], the “expression of MMP3, CCL12 and HIF1A versus control after treatment” value in data set [4] is recorded as “still substantially higher when compared with control”. Also, the “signs of IPF and lung tissue injury detected by MRI and histopathology” value in data set [2] (PGE2 alone delivered locally into the lungs) is recorded as “substantially less pronounced”. In data set [2] (PGE2 by inhalation, from day 15), the “hydroxyproline content in the lungs of treated animals versus healthy control” value is “still significantly higher”. Moreover, in data set [2] (setting [6]), the “body weight of experimental animals” value is reported as “decreased the body weight of experimental animals induced by bleomycin” and the lung weight result is reported as “had a little effect on the lung weight”. Also, the “therapeutic effects of PGE2 delivered by liposomes versus NLC” value in data set [2] (inhalation) is “comparable”.
